Assay results published in patent US20170260183A1, “BICYCLIC COMPOUNDS AS PEST CONTROL AGENTS” (BAYER CROPSCIENCE AKTIENGESELLSCHAFT, priority 2014, published 2017).
Where two headings read alike, the source gives them in different places.

How the values were obtained:
[1] = logP determination by HPLC on reversed-phase columns (OECD Guideline 117); assay type: physicochemical; conditions: reversed-phase (C18) HPLC column
Description: The logP values were determined in accordance with OECD Guideline 117 (EC Directive 92/69/EEC) by HPLC (high-performance liquid chromatography) using reversed-phase (RP) columns (C18), by the following methods: [a] The LC-MS determination in the acidic range is carried out at pH 2.7 with 0.1% aqueous formic acid and acetonitrile (contains 0.1% formic acid) as eluents; linear gradient from 10% acetonitrile to 95% acetonitrile. [b] LC-MS determination in the neutral range is effected at pH 7.8 with 0.001 molar aqueous ammonium hydrogencarbonate solution and acetonitrile as eluents; linear gradient from 10% acetonitrile to 95% acetonitrile. Calibration is effected using unbranched alkan-2-ones (having 3 to 16 carbon atoms) with known logP values (logP values determined on the basis of the retention times by linear interpolation between two successive alkanone s).

Aphis gossypii = Aphis gossypii - spray test; assay type: in vivo; conditions: application rate 4 ppm; after 6 days; sprayed cotton plants; 100% = all aphids killed
Description: Aphis gossypii—Spray Test • Solvent: 7 parts by weight of dimethylformamide • Emulsifier: alkylaryl polyglycol ether
To produce a suitable active ingredient formulation, 1 part by weight of active ingredient is dissolved with the specified parts by weight of solvent and made up with water containing an emulsifier concentration of 1000 ppm until the desired concentration is attained. To produce further test concentrations, the formulation is diluted with emulsifier-containing water. If the addition of ammonium salts or/and penetrants is required, these are each added in a concentration of 1000 ppm to the formulation solution.
Cotton plants (Gossypium hirsutum) heavily infested by the cotton aphid (Aphis gossypii) are sprayed with an active ingredient formulation of the desired concentration.
After 6 days, the kill in % is determined. 100% means that all the aphids have been killed and 0% means that none of the aphids have been killed.

Myzus persicae = Myzus persicae - spray test; assay type: in vivo; conditions: foliar, 144 h, application rate 500 g/ha, after 6 days, sprayed Chinese cabbage leaf discs, 100% = all aphids killed, read-out: efficacy in %
Description: Myzus persicae—Spray Test • Solvent: 78 parts by weight of acetone • 1.5 parts by weight of dimethylformamide • Emulsifier: alkylaryl polyglycol ether […] To produce further test concentrations, the formulation is diluted with emulsifier-containing water. Discs of Chinese cabbage leaves (Brassica pekinensis) infested by all stages of the green peach aphid (Myzus persicae) are sprayed with an active ingredient formulation of the desired concentration. After 6 days, the efficacy in % is determined. 100% means that all the aphids have been killed and 0% means that none of the aphids have been killed.

[2] = neutral range, pH 7.8, 0.001 molar aqueous ammonium hydrogencarbonate and acetonitrile, read-out: logP[b]
[3] = acidic range, pH 2.7, 0.1% aqueous formic acid and acetonitrile, read-out: logP[a]

| Structure (SMILES) | chromatographic logP [1, 2] | chromatographic logP [1, 3] | efficacy (kill in %) (Aphis gossypii) [%] | pest or weed control at 500 g/ha (Myzus persicae) [%] |
| --- | --- | --- | --- | --- |
| CC(=O)Nc1cnc2nn(-c3cccnc3)cc2c1 [Example 1, 5-N-Acetylamino-2-(3-pyridyl)-pyrazolo[3,4-b]pyridine] | 0.54 |  | 95 |  |
| Cc1cc(F)c(-c2cnc3nn(-c4cccnc4)cc3c2)cc1SCC(F)(F)F [Example 2, 5-[2-Fluoro-4-methyl-5-(2,2,2-trifluoroethylsulphanyl)phenyl]-2-(3-pyridyl)pyrazolo[3,4-b]pyridine] | 3.22 | 3.44 |  | 90 |
| Cc1cc(F)c(-c2cnc3nn(-c4cccnc4)cc3c2)cc1[S+]([O-])CC(F)(F)F (centres unmarked) [Example 3, 5-[2-fluoro-4-methyl-5-(2,2,2-trifluoroethylsulphinyl)phenyl]-2-(3-pyridyl)pyrazolo [3,4-b]pyridine] | 2.11 | 2.14 |  | 90 |
| Cc1ccc(-c2cnc3nn(-c4cccnc4)cc3c2)cc1SCC(F)(F)F [Example 4, 5-[4-methyl-3-(2,2,2-trifluoroethylsulphanyl)phenyl]-2-(3-pyridyl)pyrazolo[3,4-b]pyridine] | 3.1 | 3.14 |  | 100 |

Second part, led by results:

| chromatographic logP [1, 2] | chromatographic logP [1, 3] | Structure (SMILES) | efficacy (kill in %) (Aphis gossypii) [%] | pest or weed control at 500 g/ha (Myzus persicae) [%] |
| --- | --- | --- | --- | --- |
| 2.03 | 2.07 | Cc1ccc(-c2cnc3nn(-c4cccnc4)cc3c2)cc1[S+]([O-])CC(F)(F)F (centres unmarked) [Example 5, 5-[4-METHYL-3-(2,2,2-TRIFLUOROETHYLSULPHINYL)PHENYL]-2-(3-PYRIDYL)PYRAZOLO [3,4-B]PYRIDINE] |  | 100 |
| 1.21 | 1.15 | CSCCC(=O)Nc1cnc2nn(-c3cccnc3)cc2c1 [Example 6, 3-methylsulphanyl-N-[2-(3-pyridyl)pyrazolo [3,4-b]pyridin-5-yl]propanamide] |  | 100 |
| 1.22 | 1.22 | CC(F)(F)CC(=O)Nc1cnc2nn(-c3cccnc3)cc2c1 [Example 7, 3,3-DIFLUORO-N-[2-(3-PYRIDYL)PYRAZOLO[3,4-B]PYRIDIN-5-YL]BUTANAMIDE] |  | 90 |
| 1.15 | 1 | Cn1cc(-c2cnc3nn(-c4cccnc4)cc3c2)cn1 [Example 8, 5-(1-methylpyrazol-4-yl)-2-(3-pyridyl)pyrazolo[3,4-b]pyridine] |  | 90 |
| 1.2 | 1.16 | CSCCC(=O)N(C)c1cnc2nn(-c3cccnc3)cc2c1 [Example 10, N-[2-(3-pyridyl)pyrazolo[3,4-b]pyridin-5-yl]-N-methyl-3-methylsulphanylpropanamide] |  | 90 |
